The values below come from PMC12184417, “CDADC1 is a vertebrate-specific dCTP deaminase that metabolizes gemcitabine and decitabine to prevent cellular toxicity” (Proceedings of the National Academy of Sciences of the …, 2025).

In one series the target is T1, DCTD (Homo sapiens, UniProt P32321).
T1 sequence (P32321 1-178): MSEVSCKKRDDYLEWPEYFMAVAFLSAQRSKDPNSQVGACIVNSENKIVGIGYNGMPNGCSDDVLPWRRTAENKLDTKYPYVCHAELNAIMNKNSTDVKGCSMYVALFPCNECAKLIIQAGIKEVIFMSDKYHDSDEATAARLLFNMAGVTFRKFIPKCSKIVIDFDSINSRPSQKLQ
Nature of the series: thin-layer chromatography of dCMP deamination. The series is classed as biochemical. The settings on record: allosteric activator; substrate dCMP; 37 C, 15 min; 50 mM Tris-HCl pH 7.5.

Substrate in the series “purified protein”: Nc1ccn([C@H]2C[C@H](O)[C@@H](COP(=O)(O)OP(=O)(O)OP(=O)(O)O)O2)c(=O)n1
The experiment in a line: purified protein. The format is biochemical, Homo sapiens. To be noted: 50 mM Tris-HCl pH 7.5, 200 ng enzyme, sigmoidal fit slightly better than Michaelis-Menten.

On to `Nc1ccn([C@H]2C[C@H](O)[C@@H](COP(=O)(O)OP(=O)(O)OP(=O)(O)O)O2)c(=O)n1` [dCTP], for which the “thin-layer chromatography of dCMP deamination” value on DCTD is listed as “DCTD converted dCMP to dUMP, with activity enhanced by the allosteric activator dCTP”.

B1: CDADC1 (Homo sapiens) (protein)
chain: MKEAGQMQNLESARAGRSVSTQTGSMTGQIPRLSKVNLFTLLSLWMELFPAEAQRQKSQKNEEGKHGPLGDNEERTRVSTDKRQVKRTGLVVVKNMKIVGLHCSSEDLHAGQIALIKHGSRLKNCDLYFSRKPCSACLKMIVNAGVNRISYWPADPEISLLTEASSSEDAKLDAKAVERLKSNSRAHVCVLLQPLVCYMVQFVEETSYKCDFIQKITKTLPDANTDFYYECKQERIKEYEMLFLVSNEEMHKQILMTIGLENLCENPYFSNLRQNMKDLILLLATVASSVPNFKHFGFYRSNPEQINEIHNQSLPQEIARHCMVQARLLAYRTEDHKTGVGAVIWAEGKSRSCDGTGAMYFVGCGYNAFPVGSEYADFPHMDDKQKDREIRKFRYIIHAEQNALTFRCQEIKPEERSMIFVTKCPCDECVPLIKGAGIKQIYAGDVDVGKKKADISYMRFGELEGVSKFTWQLNPSGAYGLEQNEPERRENGVLRPVPQKEEQHQDKKLRLGIH
notes: two deaminase domains CDD1 and CDD2
Turning to B1, the Michaelis constant (Km) in the series “purified protein” is reported as 288.5 ± 30.6 µM.
